According to US6075029A, “Xanthine modulators of metabolism of cellular P-450” (Cell Therapeutics, Inc., priority 1998, dated 2000):

What was measured:
[1] = human, in vivo; cited from earlier work
P-4501A2 = target: T1, P-4501A2 (Homo sapiens, UniProt P05177); assay: Inhibition of P-450 mediated caffeine metabolism to paraxanthine in human liver microsomes; details: for activity at 0 h, 100 µM / activity at 5 min, 100 µM / activity at 20 min, 100 µM: human; for inhibition of P-450-mediated caffeine metabolism (in words): human liver microsomes, summary of Table 1
T1 sequence (P05177 1-516): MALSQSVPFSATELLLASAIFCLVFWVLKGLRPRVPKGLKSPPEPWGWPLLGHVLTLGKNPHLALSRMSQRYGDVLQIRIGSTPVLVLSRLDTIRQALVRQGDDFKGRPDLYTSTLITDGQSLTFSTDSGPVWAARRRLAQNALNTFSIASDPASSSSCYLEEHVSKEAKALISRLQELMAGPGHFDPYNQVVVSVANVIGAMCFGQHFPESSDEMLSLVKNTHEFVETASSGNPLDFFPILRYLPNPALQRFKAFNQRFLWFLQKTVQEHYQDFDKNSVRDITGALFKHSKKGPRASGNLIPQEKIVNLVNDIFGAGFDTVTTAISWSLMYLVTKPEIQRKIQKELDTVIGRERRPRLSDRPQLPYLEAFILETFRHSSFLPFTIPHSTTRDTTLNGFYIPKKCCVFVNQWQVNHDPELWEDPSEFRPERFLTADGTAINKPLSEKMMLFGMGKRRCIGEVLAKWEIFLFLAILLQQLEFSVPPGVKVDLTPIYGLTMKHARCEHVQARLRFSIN
Method: The model system directly measures inhibition of P-4501A2-mediated metabolism in the physiological environment of human liver microsomes. Measurement of drug metabolism in a microsome system is directly predictive of liver metabolism in vivo. Thus, microsome data can be used to estimate the in vivo circulating half-life of compounds that are primarily metabolized in the liver.
Microsomes were prepared by standard techniques from four human livers. […] Three sets of enantiomers, CT2408 R&S, CT2410 R&S, and CT2412 R&S, were evaluated for inhibition of caffeine metabolism to paraxanthine by P-450.
Briefly, the inventive compounds were preincubated in microsomes with NADPH at concentrations of 100 μM for 0, 5, and 20 minutes. Samples containing only buffer, LSF, or furafylline were used as controls.
At the end of the preincubation period, the samples were diluted in a solution of NADPH and caffeine. The samples then were incubated for twenty minutes. Hydroxyethyl theophylline was added as an internal standard, and the samples were analyzed for paraxanthine via HPLC. Decreased paraxanthine formation is indicative of inhibition of P-450-mediated caffeine metabolism.
Incubation conditions and analysis of paraxanthine
To 200 μL microsomal suspension (HL-124; 20 mg/mL protein, P-450 specific activity 0.24 nmol/mg protein) and 100 μL 8.0 mM NADPH (Sigma, tetrasodium salt) in 100 mM phosphate buffer pH 7.4 preincubated for 2 minutes at 37° were added 100 μL of test compound solution (400 μM) in phosphate buffer ([…], pH 7.4). The solution then was incubated at 37° with agitation for 0, 5, and 20 minutes at which times 100 μL of the solution was transferred to another tube containing 200 μL 12.5 mM caffeine and 200 μL 5.0 mM NADPH which had been warmed at 37° for 2 minutes. The suspensions then were incubated for 20 minutes, 200 μL acetonitrile added, and the tubes placed on ice.
After all incubations were finished, 50 μL β-hydroxyethyl theophylline (50 μg/mL, HET) was added as an internal standard. Paraxanthine standards were prepared in 0.5 mL phosphate buffer containing 2.0 mg boiled microsomal protein ranging in concentration from 0.433 to 13.9 nmol/sample.
The suspensions then were extracted for 5 minutes with 7.0 mL methylene chloride (Fisher Optima grade), centrifuged at 3,000 g and the aqueous layer aspirated to waste. An aliquot of the organic (5.5 mL) was then transferred to another tube, evaporated to dryness under nitrogen at 30°, and reconstituted in 20% methanol/water.
Thirty microliters of reconstituted sample were then applied to an Hewlett Packard 1050 HPLC system equipped with a Rainin Microsorb™ 4.6×100 mm column with 3 μm C-18 packing. Mobile phase was maintained at 1.0 mL/min and changed from 2:13:85 to 2:20:78 acetonitrile:methanol:25 mM phosphate buffer, pH 5 over 10 minutes, the column was then washed by increasing the acetonitrile to 20% prior to re-equilibration for the next injection. Column eluent was monitored at 285 nm and paraxanthine, HET, and caffeine respectively eluted at 5.3, 6.6, and 9.8 minutes.

P-450IA2 [2] = details: Lillibridge et al.; cited from earlier work
P-450IA2 [3] = details: liver; Sesardic et al.; cited from earlier work
caffeine metabolism = details: cited from earlier work
LSF metabolism = assay: Co-administration of furafylline with LSF: circulating half-life of LSF; assay type: in vivo; details: co-administered with LSF

Compound | activity at 0 h, 100 µM (P-4501A2; liver microsomes) | activity at 5 min, 100 µM (P-4501A2; liver microsomes) | activity at 20 min, 100 µM (P-4501A2; liver microsomes) | also measured
O=C1CC[C@@H](N2C(=O)c3ccccc3C2=O)C(=O)N1 [thalidomide R-isomer] |  |  |  | sedative activity [1]: desired sedative activity resided in the R-isomer
Cc1nc2c([nH]1)c(=O)n(CCCC[C@H](C)O)c(=O)n2Cc1ccco1 [CT2412S, (S)-3-(2-Furylmethyl)-1-(5-hydroxyhexyl)-8-methylxanthine] | 98.7% | 75.6% | 51.7% | 
Cc1nc2c([nH]1)c(=O)n(CCCCC(C)O)c(=O)n2C (stereo not drawn) [CT2408 R&S, 1-(5-Hydroxyhexyl)-3,8-dimethylxanthine] |  |  |  | inhibition of P-450-mediated caffeine metabolism (in words) (P-4501A2): showed similar inhibition
Cc1nc2c([nH]1)c(=O)n(CCCCC(C)O)c(=O)n2Cc1ccco1 (stereo not drawn) [CT2412 R&S, 3-(2-furylmethyl)-1-(5-hydroxyhexyl)-8-methylxanthine] |  |  |  | inhibition of P-450-mediated caffeine metabolism (in words) (P-4501A2): showed similar inhibition
Cc1nc2c([nH]1)c(=O)n(CCCC[C@@H](C)O)c(=O)n2C [CT2408R, (R)-1-(5-Hydroxyhexyl)-3,8-dimethylxanthine] | 95.2% | 73.9% | 46.6% | 
CC[C@H](CO)NCCN[C@H](CC)CO [ethambutol R,R-enantiomer] |  |  |  | toxic / side effects [1]: can cause blindness
Cc1nc2c(c(=O)n(CCCCC(C)O)c(=O)n2C)n1C (stereo not drawn) [CT2410, 1-(5-Hydroxyhexyl)-3,7,8-trimethylxanthine] |  |  |  | inhibition of P-450-mediated caffeine metabolism (in words) (P-4501A2): Neither CT2410 (1-(5-Hydroxyhexyl)-3,7,8-trimethylxanthine) nor LSF ((R)-1-(5-Hydroxyhexyl)-3,7-dimethylxanthine) had any inhibitory effect
Cc1nc2c(c(=O)n(CCCC[C@@H](C)O)c(=O)n2C)n1C [CT2410R, 1-(5-Hydroxyhexyl)-3,7,8-trimethylxanthine] | 92.8% | 87.8% | 88.3% | 
CC(=O)CCCCn1c(=O)c2c(ncn2C)n(C)c1=O [PTX] |  |  |  | site of metabolism (P-450IA2 [2]): primary metabolites of LSF and PTX result from modification of the N1 substituent, not the N3 substituent
O=C1CC[C@H](N2C(=O)c3ccccc3C2=O)C(=O)N1 [thalidomide S-isomer] |  |  |  | toxic / side effects [1]: teratogen, causing the birth defects in babies born to mothers using this drug
C[C@@H](O)CCCCn1c(=O)c2c(ncn2C)n(C)c1=O [LSF, (R)-1-(5-Hydroxyhexyl)-3,7-dimethylxanthine, reference compound] | 101% | 91% | 85.8% | site of metabolism (P-450IA2 [2]): primary metabolites of LSF and PTX result from modification of the N1 substituent, not the N3 substituent; inhibition of P-450-mediated caffeine metabolism (in words) (P-4501A2): Neither CT2410 (1-(5-Hydroxyhexyl)-3,7,8-trimethylxanthine) nor LSF ((R)-1-(5-Hydroxyhexyl)-3,7-dimethylxanthine) had any inhibitory effect
CC(C(=O)O)c1ccc2oc(-c3ccc(Cl)cc3)nc2c1 (stereo not drawn) [benoxaprofen] |  |  |  | toxic / side effects [1]: lethal side effects
Cn1c(=O)c2c(ncn2C)n(C)c1=O [caffeine, 1,3,7-trimethylxanthine] |  |  |  | site of metabolism (P-450IA2 [2]): P-450IA2 mediates demethylation of caffeine at the N3 position of the xanthine ring
Cc1nc2c(c(=O)n(CCCC[C@H](C)O)c(=O)n2C)n1C [CT2410S, 1-(5-Hydroxyhexyl)-3,7,8-trimethylxanthine] | 101% | 91% | 83.5% | 
Cc1nc2c([nH]1)c(=O)n(C)c(=O)n2Cc1ccco1 [FRF, 1,8-dimethyl-3-(2'furfuryl)-methylxanthine] |  |  |  | activity at 0 h, 100 µM (P-4501A2; microsomes): 36.8%; activity at 5 min, 100 µM (P-4501A2; microsomes): 13.9%; activity at 20 min, 100 µM (P-4501A2; microsomes): 10.1%; inhibition of P-450IA2 / N3 demethylation of caffeine (P-450IA2 [3]): inhibiting the P-450 isozyme, P-450IA2, which catalyzes N3 demethylation of caffeine in the liver; circulating half-life of caffeine (caffeine metabolism; by inhibiting N3 demethylation): increases the circulating half-life of caffeine; serum caffeine levels in patients treated (caffeine metabolism; clinical trials, Tarrus et al.): elevated serum caffeine levels; circulating half-life of LSF on co-administration (LSF metabolism): increase the circulating half-life of the methylxanthine compound LSF
Cc1nc2c([nH]1)c(=O)n(CCCC[C@@H](C)O)c(=O)n2Cc1ccco1 [CT2412R, (R)-3-(2-Furylmethyl)-1-(5-hydroxyhexyl)-8-methylxanthine] | 101% | 82.8% | 56.3% | 
Cc1nc2c([nH]1)c(=O)n(CCCC[C@H](C)O)c(=O)n2C [CT2408S, (S)-1-(5-Hydroxyhexyl)-3,8-dimethylxanthine] | 97.2% | 71% | 41.8% | 
